The source of these data is EPA's ToxValDB 9.5 (doi:10.2903/j.efsa.2016.4416).

≈ marks a conversion by molar mass, not a printed value.

In one series the test system is Neomysis kadiakensis. The following applies: for LC50: acute, mortality.
The subject of another series is Folsomia candida. As to conditions: chronic/long-term; duration: 28 days; mortality.
A further series has as its system Oncorhynchus mykiss. The following applies: for LC50: acute, duration: 96 hours, mortality.
A further series relates to Tagia sp. As to conditions: for NOEC: chronic/long-term, duration: 56 days, reproduction.
Another series relates to Apis mellifera. As to conditions: acute, mortality.
The subject of another series is Oryctolagus sp. The following applies: developmental; development.
The next series concerns Bibionidae. As to conditions: chronic/long-term; duration: 22 days; other.
Another series has as its system Anas platyrhynchos. The following applies: acute; oral; unspecified; mortality.

In general, NOAEL refers to the highest dose or exposure tested at which no adverse effect was seen. On to `CS(=O)(=O)c1cc(C(F)(F)F)ccc1C(=O)C(C#N)C(=O)C1CC1` (configuration not stated), for which the LC50 in the series on Neomysis kadiakensis (duration: 48 hours) is 24 µg/mL (≈ 66.8 µM); with Neomysis kadiakensis (duration: 96 hours) it was 3.7 µg/mL (≈ 10.3 µM); in the series with Oncorhynchus mykiss, more than 15 µg/mL. This compound also came in with a no-observed-adverse-effect level (NOAEL) with Colinus virginianus (chronic, reproduction) of 25 mg/kg-day. The NOEC in the series with Folsomia candida was more than 100 mg/kg; with Tagia sp. it was 9 mg/kg.
In the series on Rattus norvegicus (subchronic, duration: 90 days, M), `CS(=O)(=O)c1cc(C(F)(F)F)ccc1C(=O)O` [2-Methylsulfonyl-4-trifluoromethylbenzoic acid] yielded an NOAEL of 769 mg/kg-day.
Turning to `CS(=O)(=O)c1cc(C(F)(F)F)ccc1C(=O)c1cnoc1C1CC1` [Isoxaflutole], the LD50 with Apis mellifera (dermal) was more than 100 µg/piece; in the series with Apis mellifera (oral, unspecified), more than 109 µg/piece; in the series with Colinus virginianus (acute, oral, mortality), more than 2150 mg/kg-day; in the series on Rattus norvegicus (acute, mortality), more than 5000 mg/kg; in the series with Anas platyrhynchos, more than 2150 mg/kg-day. Moreover, the NOAEL was determined as 5 mg/kg-day with Oryctolagus sp.; 2 mg/kg-day in the series on Rattus norvegicus (chronic, duration: 2 years, histopathology: nonneoplastic); 2 mg/kg-day in the series on Rattus norvegicus (reproduction developmental, organ weight). Moreover, the LC50 in the series with Neomysis kadiakensis (duration: 48 hours) is more than 0.077 µg/mL; in the series on Oncorhynchus mykiss, more than 1.7 µg/mL; in the series on Tagia sp. (acute, duration: 14 days, mortality) it was more than 500 mg/kg. Also, the NOEC in the series on Neomysis kadiakensis (chronic/long-term, other) is 0.001 mg/L; with Bibionidae it was 0.1 mg/L; with Oncorhynchus mykiss (chronic/long-term, duration: 28 days, growth) it was 0.08 mg/L; with Tagia sp. it was 8.9 mg/kg.
